Laboratory results: patent US9549932B2, “2-(morpholin-4-yl)-1,7-naphthyridines” (BAYER PHARMA AKTIENGESELLSCHAFT, priority 2014, dated 2017)
pIC50: −log10 of the molar value. Structures can show the parent of a compound that is named as a salt.

Molecular target: full-length human ATR protein (Homo sapiens (Human), UniProt Q13535)
Assay: Binding assay ATR (TR-FRET tracer displacement)
Conditions: tracer A, TR-FRET; read-out: ATR binding (tracer A) IC50
How it was run: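 Full-length human GST-ATR co-purified with ATRIP, pre-complexed 30 min at 22 °C with anti-GST-Tb antibody, then pre-bound with compound 10 min. Tracer A or B added (2 µl of 100 nM solution), 30 min at 22 °C.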

Chain of full-length human ATR protein (Q13535 other isoform, or with tags, fused parts or gaps): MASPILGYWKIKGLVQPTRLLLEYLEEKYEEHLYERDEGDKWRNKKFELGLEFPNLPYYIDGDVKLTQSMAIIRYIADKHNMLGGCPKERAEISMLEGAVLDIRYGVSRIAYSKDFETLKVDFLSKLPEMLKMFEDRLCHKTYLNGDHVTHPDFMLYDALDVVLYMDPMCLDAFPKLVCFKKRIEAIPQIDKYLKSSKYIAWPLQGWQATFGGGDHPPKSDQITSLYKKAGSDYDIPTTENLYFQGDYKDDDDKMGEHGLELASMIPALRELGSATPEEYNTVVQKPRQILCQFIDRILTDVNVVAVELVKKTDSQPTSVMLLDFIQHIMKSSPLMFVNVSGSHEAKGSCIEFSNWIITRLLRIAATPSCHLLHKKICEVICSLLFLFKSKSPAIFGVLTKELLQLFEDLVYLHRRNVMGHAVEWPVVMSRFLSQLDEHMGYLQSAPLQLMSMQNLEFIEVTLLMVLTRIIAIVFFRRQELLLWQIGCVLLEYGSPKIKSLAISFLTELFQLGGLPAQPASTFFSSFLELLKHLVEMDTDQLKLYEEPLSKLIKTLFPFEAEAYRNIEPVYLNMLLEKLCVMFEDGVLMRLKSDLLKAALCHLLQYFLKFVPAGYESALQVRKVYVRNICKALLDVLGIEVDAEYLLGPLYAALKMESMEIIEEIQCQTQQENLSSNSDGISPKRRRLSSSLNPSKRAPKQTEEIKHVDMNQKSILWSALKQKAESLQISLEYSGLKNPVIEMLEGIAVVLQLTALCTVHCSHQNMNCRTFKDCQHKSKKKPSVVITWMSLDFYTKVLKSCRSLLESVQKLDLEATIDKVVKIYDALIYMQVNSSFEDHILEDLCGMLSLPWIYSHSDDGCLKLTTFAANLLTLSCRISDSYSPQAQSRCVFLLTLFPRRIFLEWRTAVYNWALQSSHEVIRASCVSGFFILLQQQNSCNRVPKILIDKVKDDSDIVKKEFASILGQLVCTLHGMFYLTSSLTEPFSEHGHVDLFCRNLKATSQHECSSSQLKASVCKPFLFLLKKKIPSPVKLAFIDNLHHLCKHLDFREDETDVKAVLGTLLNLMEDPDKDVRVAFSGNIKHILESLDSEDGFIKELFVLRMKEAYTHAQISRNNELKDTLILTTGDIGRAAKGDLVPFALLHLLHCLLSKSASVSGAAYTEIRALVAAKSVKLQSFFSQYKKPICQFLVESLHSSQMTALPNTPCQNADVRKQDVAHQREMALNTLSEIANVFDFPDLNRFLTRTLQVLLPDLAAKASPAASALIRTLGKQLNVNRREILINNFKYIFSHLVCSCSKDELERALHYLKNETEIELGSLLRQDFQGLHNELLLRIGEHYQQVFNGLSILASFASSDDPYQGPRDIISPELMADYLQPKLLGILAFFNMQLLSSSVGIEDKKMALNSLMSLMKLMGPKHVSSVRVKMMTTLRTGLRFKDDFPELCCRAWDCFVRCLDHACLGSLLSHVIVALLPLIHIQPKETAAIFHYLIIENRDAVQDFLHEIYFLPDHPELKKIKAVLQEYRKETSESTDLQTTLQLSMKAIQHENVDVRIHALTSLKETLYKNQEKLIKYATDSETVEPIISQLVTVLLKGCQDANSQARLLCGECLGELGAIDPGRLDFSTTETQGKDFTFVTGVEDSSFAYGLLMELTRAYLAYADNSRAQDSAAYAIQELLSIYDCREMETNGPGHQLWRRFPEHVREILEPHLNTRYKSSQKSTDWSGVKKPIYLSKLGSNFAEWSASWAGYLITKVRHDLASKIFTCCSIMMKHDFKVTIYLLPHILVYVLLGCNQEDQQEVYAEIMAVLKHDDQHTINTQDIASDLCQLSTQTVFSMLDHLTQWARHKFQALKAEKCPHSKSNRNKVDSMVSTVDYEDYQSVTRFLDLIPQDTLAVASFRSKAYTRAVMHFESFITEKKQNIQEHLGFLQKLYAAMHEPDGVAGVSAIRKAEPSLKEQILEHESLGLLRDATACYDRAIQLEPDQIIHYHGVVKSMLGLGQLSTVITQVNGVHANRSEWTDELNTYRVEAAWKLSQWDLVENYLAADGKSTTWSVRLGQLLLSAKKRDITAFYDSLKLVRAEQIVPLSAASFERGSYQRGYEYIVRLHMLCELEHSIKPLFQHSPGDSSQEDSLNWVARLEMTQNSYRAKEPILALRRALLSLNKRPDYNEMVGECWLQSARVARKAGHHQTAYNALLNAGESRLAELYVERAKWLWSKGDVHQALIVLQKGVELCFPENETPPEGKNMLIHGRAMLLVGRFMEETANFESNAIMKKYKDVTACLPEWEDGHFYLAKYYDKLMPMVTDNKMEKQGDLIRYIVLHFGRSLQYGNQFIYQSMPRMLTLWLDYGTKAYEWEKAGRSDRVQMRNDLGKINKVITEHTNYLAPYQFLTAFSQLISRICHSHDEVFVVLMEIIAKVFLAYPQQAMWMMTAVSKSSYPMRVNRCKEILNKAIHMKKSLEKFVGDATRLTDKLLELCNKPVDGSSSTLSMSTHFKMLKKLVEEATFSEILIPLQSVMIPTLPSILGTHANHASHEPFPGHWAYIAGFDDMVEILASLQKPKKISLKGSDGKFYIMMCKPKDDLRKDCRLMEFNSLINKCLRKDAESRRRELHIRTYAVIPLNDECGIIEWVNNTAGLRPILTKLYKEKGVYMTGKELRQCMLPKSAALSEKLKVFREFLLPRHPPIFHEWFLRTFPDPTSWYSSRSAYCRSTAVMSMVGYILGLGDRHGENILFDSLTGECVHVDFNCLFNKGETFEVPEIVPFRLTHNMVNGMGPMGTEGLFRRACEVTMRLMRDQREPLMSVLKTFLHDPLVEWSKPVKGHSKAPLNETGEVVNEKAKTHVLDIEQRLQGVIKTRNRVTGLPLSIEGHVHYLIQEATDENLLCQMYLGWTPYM
Chain of full-length human ATR protein (Q8WXE1 other isoform, or with tags, fused parts or gaps partner): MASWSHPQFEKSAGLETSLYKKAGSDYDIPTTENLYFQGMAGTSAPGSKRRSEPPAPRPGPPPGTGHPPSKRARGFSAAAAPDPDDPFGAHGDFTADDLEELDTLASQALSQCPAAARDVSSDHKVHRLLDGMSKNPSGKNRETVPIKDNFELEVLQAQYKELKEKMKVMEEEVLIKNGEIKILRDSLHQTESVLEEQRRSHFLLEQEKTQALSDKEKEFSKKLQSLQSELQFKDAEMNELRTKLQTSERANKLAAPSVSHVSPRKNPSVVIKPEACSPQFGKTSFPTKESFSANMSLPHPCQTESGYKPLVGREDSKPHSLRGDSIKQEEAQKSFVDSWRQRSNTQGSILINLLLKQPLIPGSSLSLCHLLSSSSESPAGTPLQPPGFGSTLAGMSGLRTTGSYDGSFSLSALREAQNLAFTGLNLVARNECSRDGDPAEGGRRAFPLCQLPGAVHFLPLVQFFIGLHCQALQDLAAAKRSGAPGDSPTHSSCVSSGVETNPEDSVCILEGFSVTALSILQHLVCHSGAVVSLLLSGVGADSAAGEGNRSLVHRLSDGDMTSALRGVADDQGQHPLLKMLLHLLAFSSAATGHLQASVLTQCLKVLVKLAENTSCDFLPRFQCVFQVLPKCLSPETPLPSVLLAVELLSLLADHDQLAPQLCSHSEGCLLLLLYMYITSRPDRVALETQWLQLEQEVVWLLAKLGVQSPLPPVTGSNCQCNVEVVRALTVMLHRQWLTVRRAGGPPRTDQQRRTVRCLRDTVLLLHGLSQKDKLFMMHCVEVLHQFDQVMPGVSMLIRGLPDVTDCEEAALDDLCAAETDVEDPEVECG

Point of comparison: `C[C@@H]1COCCN1c1cc(-c2ccc(S(C)(=O)=O)cc2F)c2ccnc(-c3ccn[nH]3)c2n1` [Example 74, 4-[2-fluoro-4-(methylsulfonyl)phenyl]-2-[(3R)-3-methylmorpholin-4-yl]-8-(1H-pyrazol-5-yl)-1,7-naphthyridine], pIC50 8.15. Against it:
- CC(C)n1nccc1-c1cc(N2CCOC[C@H]2C)nc2c(-c3ccn[nH]3)nccc12 [Example 124, 4-(1-isopropyl-1H-pyrazol-5-yl)-2-[(3R)-3-methylmorpholin-4-yl]-8-(1H-pyrazol-5-yl)-1,7-naphthyridine] — 0.28 log units lower, 7.87
- CS(=O)(=O)c1ccc(-c2cc(N3CCOCC3)nc3c(-c4ccn[nH]4)nccc23)cn1 [Example 3, 4-[6-(methylsulfonyl)pyridin-3-yl]-2-(morpholin-4-yl)-8-(1H-pyrazol-5-yl)-1,7-naphthyridine] — 0.91 log units lower, 7.24
- C[C@@H]1COCCN1c1cc(-c2cn(C)nc2C(F)(F)F)c2ccnc(-c3ccn[nH]3)c2n1 [Example 259, 2-[(3R)-3-methylmorpholin-4-yl]-4-[1-methyl-3-(trifluoromethyl)-1H-pyrazol-4-yl]-8-(1H-pyrazol-5-yl)-1,7-naphthyridine] — 0.38 log units lower, 7.77
- Cc1cc(N2CCOCC2)nc2c(-c3cc[nH]n3)nccc12 [Example 20, 4-methyl-2-(morpholin-4-yl)-8-(1H-pyrazol-3-yl)-[1,7]naphthyridine hydrochloride] — 2.06 log units lower, 6.09
- C[C@@H]1COCCN1c1cc(-c2cncn2Cc2ccccc2)c2ccnc(-c3ccn[nH]3)c2n1 [Example 76, 4-(1-benzyl-1H-imidazol-5-yl)-2-[(3R)-3-methylmorpholin-4-yl]-8-(1H-pyrazol-5-yl)-1,7-naphthyridine] — within 0.2 log units, 8.05
- CCn1cc(-c2cc(N3CCOC[C@H]3C)nc3c(-c4ccn[nH]4)nccc23)cn1 [Example 261, 4-(1-ethyl-1H-pyrazol-4-yl)-2-[(3R)-3-methylmorpholin-4-yl]-8-(1H-pyrazol-5-yl)-1,7-naphthyridine] — 0.62 log units lower, 7.53
- C[C@@H]1CN(c2cc(N3CCOCC3)nc3c(-c4ccn[nH]4)nccc23)C[C@H](C)N1 [Example 179, 4-[(cis)-3,5-dimethylpiperazin-1-yl]-2-(morpholin-4-yl)-8-(1H-pyrazol-5-yl)-1,7-naphthyridine] — 1.81 log units lower, 6.34
- Nc1cccc(-c2cc(N3CCOCC3)nc3c(-c4ccn[nH]4)nccc23)c1 [Example 335, 3-[2-(morpholin-4-yl)-8-(1H-pyrazol-5-yl)-1,7-naphthyridin-4-yl]aniline] — 0.97 log units lower, 7.18
- C[C@@H]1COCCN1c1cc(S(C)(=O)=O)c2ccnc(-c3ccn[nH]3)c2n1 [Example 33, 2-[(3R)-3-methylmorpholin-4-yl]-4-(methylsulfonyl)-8-(1H-pyrazol-5-yl)-1,7-naphthyridine] — 0.45 log units lower, 7.70
- COP(=O)(OC)c1ccc(-c2cc(N3CCOCC3)nc3c(-c4ccn[nH]4)nccc23)cc1 [Example 9, Dimethyl {4-[2-(morpholin-4-yl)-8-(1H-pyrazol-5-yl)-1,7-naphthyridin-4-yl]phenyl}phosphonate] — 1.23 log units lower, 6.92
- CC[S+]([O-])c1cc(N2CCOCC2)nc2c(-c3ccn[nH]3)nccc12 (stereo not shown) [Example 195, 4-ethylsulfinyl-2-(morpholin-4-yl)-8-(1H-pyrazol-5-yl)-1,7-naphthyridine] — 1.00 log units lower, 7.15
- O=S(=O)(c1ccccc1)c1cc(N2CCOCC2)nc2c(-c3ccn[nH]3)nccc12 [Example 198, 2-(morpholin-4-yl)-4-(phenylsulfonyl)-8-(1H-pyrazol-5-yl)-1,7-naphthyridine] — 1.62 log units lower, 6.53
- Cc1cscc1-c1cc(N2CCOC[C@H]2C)nc2c(-c3ccn[nH]3)nccc12 [Example 101, 2-[(3R)-3-methylmorpholin-4-yl]-4-(4-methyl-3-thienyl)-8-(1H-pyrazol-5-yl)-1,7-naphthyridine] — 0.20 log units lower, 7.95
- C[C@@H]1COCCN1c1cc(N2CCNCC2)c2ccnc(-c3ccn[nH]3)c2n1 [Example 66, 2-[(3R)-3-methylmorpholin-4-yl]-4-(piperazin-1-yl)-8-(1H-pyrazol-5-yl)-1,7-naphthyridine] — 1.09 log units lower, 7.06
- C[C@@H]1COCCN1c1cc(C2CC[S+]([O-])CC2)c2ccnc(-c3ccn[nH]3)c2n1 (stereo partly drawn) [Example 203, 2-[(3R)-3-methylmorpholin-4-yl]-4-[1-oxidotetrahydro-2H-thiopyran-4-yl]-8-(1H-pyrazol-5-yl)-1,7-naphthyridine] — 0.20 log units lower, 7.95
- CC(C)(C)OC(=O)[C@@H]1CCCN1c1cc(N2CCOCC2)nc2c(-c3ccn[nH]3)nccc12 [Example 422, tert-butyl 1-[2-(morpholin-4-yl)-8-(1H-pyrazol-5-yl)-1,7-naphthyridin-4-yl]-prolinate] — 2.50 log units lower, 5.65
- C[C@@H]1COCCN1c1cc(-c2cccc(C(C)(C)O)c2)c2ccnc(-c3ccn[nH]3)c2n1 [Example 168, 2-(3-{2-[(3R)-3-methylmorpholin-4-yl]-8-(1H-pyrazol-5-yl)-1,7-naphthyridin-4-yl}phenyl)propan-2-ol] — 1.87 log units lower, 6.28
- Cc1cccc(-c2cc(N3CCOCC3)nc3c(-c4ccn[nH]4)nccc23)c1C [Example 312, 4-(2,3-dimethylphenyl)-2-(morpholin-4-yl)-8-(1H-pyrazol-5-yl)-1,7-naphthyridine] — 0.52 log units lower, 7.63
- C[C@@H]1COCCN1c1cc(N=S(C)(=O)c2ccc(Br)cc2)c2ccnc(-c3ccn[nH]3)c2n1 (stereo partly shown) [Example 277] — 1.04 log units lower, 7.11
- COc1ccc(-c2cc(N3CCOCC3)nc3c(-c4ccn[nH]4)nccc23)cc1 [Example 309, 4-(4-methoxyphenyl)-2-(morpholin-4-yl)-8-(1H-pyrazol-5-yl)-1,7-naphthyridine] — 1.31 log units lower, 6.84
- c1coc(Cc2cc(N3CCOCC3)nc3c(-c4ccn[nH]4)nccc23)c1 [Example 310, 4-(furan-2-ylmethyI)-2-(morpholin-4-yl)-8-(1H-pyrazol-5-yl)-1,7-naphthyridine] — 1.14 log units lower, 7.01
- Cc1nc(S(C)(=N)=O)ccc1-c1cc(N2CCOC[C@H]2C)nc2c(-c3ccn[nH]3)nccc12 (stereo partly drawn) [Example 116, 4-[2-methyl-6-(S-methylsulfonimidoyl)pyridin-3-yl]-2-[(3R)-3-methylmorpholin-4-yl]-8-(1H-pyrazol-5-yl)-1,7-naphthyridine] — within 0.2 log units, 8.02
- COc1ccccc1-c1cc(N2CCOCC2)nc2c(-c3ccn[nH]3)nccc12 [Example 300, 4-(2-methoxyphenyl)-2-(morpholin-4-yl)-8-(1H-pyrazol-5-yl)-1,7-naphthyridine] — 1.41 log units lower, 6.74
- CCn1cnc(-c2cc(N3CCOC[C@H]3C)nc3c(-c4ccn[nH]4)nccc23)c1 [Example 153, 4-(1-ethyl-1H-imidazol-4-yl)-2-[(3R)-3-methylmorpholin-4-yl]-8-(1H-pyrazol-5-yl)-1,7-naphthyridine] — 0.89 log units lower, 7.26
- C[C@@H]1COCCN1c1cc(-c2cnn(C3CC3)c2)c2ccnc(-c3ccn[nH]3)c2n1 [Example 254, 4-(1-cyclopropyl-1H-pyrazol-4-yl)-2-[(3R)-3-methylmorpholin-4-yl]-8-(1H-pyrazol-5-yl)-1,7-naphthyridine] — 0.80 log units lower, 7.35
- CC1CCN(c2cc(N3CCOC[C@H]3C)nc3c(-c4ccn[nH]4)nccc23)CC1 [Example 109, 2-[(3R)-3-methylmorpholin-4-yl]-4-(4-methylpiperidin-1-yl)-8-(1H-pyrazol-5-yl)-1,7-naphthyridine] — within 0.2 log units, 8.04
- C[C@@H]1COCCN1c1cc(-c2cnc(F)cc2F)c2ccnc(-c3ccn[nH]3)c2n1 [Example 247, 4-(4,6-difluoropyridin-3-yl)-2-[(3R)-3-methylmorpholin-4-yl]-8-(1H-pyrazol-5-yl)-1,7-naphthyridine] — 0.48 log units lower, 7.67
- CC(C)S(=N)(=O)c1ccc(-c2cc(N3CCOCC3)nc3c(-c4ccn[nH]4)nccc23)cc1 (stereo not drawn) [Example 25, 2-(morpholin-4-yl)-4-{4-[S-(propan-2-yl)sulfonimidoyl]phenyl}-8-(1H-pyrazol-5-yl)-1,7-naphthyridine] — 1.19 log units lower, 6.96
- C[C@@H]1COCCN1c1cc(-c2ccc(S(C)(=O)=O)cc2)c2ccnc(-c3cc[nH]n3)c2n1 [Example 26, 4-(4-methanesulphonylphenyl)-2-((R)-3-methylmorpholin-4-yl)-8-(2H-pyrazol-3-yl)-[1,7]naphthyridine] — 0.34 log units lower, 7.81
- C[C@@H]1COCCN1c1cc(-c2cccnc2F)c2ccnc(-c3ccn[nH]3)c2n1 [Example 89, 4-(2-fluoropyridin-3-yl)-2-[(3R)-3-methylmorpholin-4-yl]-8-(1H-pyrazol-5-yl)-1,7-naphthyridine] — within 0.2 log units, 8.09
- CC(=O)Nc1ccccc1-c1cc(N2CCOC[C@H]2C)nc2c(-c3ccn[nH]3)nccc12 [Example 166, N-(2-{2-[(3R)-3-methylmorpholin-4-yl]-8-(1H-pyrazol-5-yl)-1,7-naphthyridin-4-yl}phenyl)acetamide] — 1.71 log units lower, 6.44
- C[C@@H]1COCCN1c1cc(-c2ccccc2N(C)C)c2ccnc(-c3ccn[nH]3)c2n1 [Example 122, N,N-dimethyl-2-{2-[(3R)-3-methylmorpholin-4-yl]-8-(1H-pyrazol-5-yl)-1,7-naphthyridin-4-yl}aniline] — 0.44 log units lower, 7.71
- C[C@@H]1COCCN1c1cc(N=S(C)(=O)c2ccc(F)cc2)c2ccnc(-c3ccn[nH]3)c2n1 (stereo partly drawn) [Example 138, 4-{[(4-fluorophenyl)(methyl)oxido-λ^6-sulfanylidene]amino}-2-[(3R)-3-methylmorpholin-4-yl]-8-(1H-pyrazol-5-yl)-1,7-naphthyridine] — 0.61 log units lower, 7.54
- C[C@@H]1COCCN1c1cc(-c2cncc3ccccc23)c2ccnc(-c3ccn[nH]3)c2n1 [Example 237, 4-(isoquinolin-4-yl)-2-[(3R)-3-methylmorpholin-4-yl]-8-(1H-pyrazol-5-yl)-1,7-naphthyridine] — 0.41 log units lower, 7.74
- c1cnc2ccc(-c3cc(N4CCOCC4)nc4c(-c5ccn[nH]5)nccc34)cc2c1 [Example 384, 2-(morpholin-4-yl)-8-(1H-pyrazol-5-yl)-4-(quinolin-6-yl)-1,7-naphthyridine] — 1.10 log units lower, 7.05
- Oc1cccc(-c2cc(N3CCOCC3)nc3c(-c4ccn[nH]4)nccc23)c1 [Example 337, 3-[2-(morpholin-4-yl)-8-(1H-pyrazol-5-yl)-1,7-naphthyridin-4-yl]phenol] — 0.60 log units lower, 7.55

Same assay, conditions: tracer B, TR-FRET; read-out: ATR binding (tracer B) IC50

Point of comparison: `COP(=O)(OC)c1ccc(-c2cc(N3CCOCC3)nc3c(-c4ccn[nH]4)nccc23)cc1` [Example 9, Dimethyl {4-[2-(morpholin-4-yl)-8-(1H-pyrazol-5-yl)-1,7-naphthyridin-4-yl]phenyl}phosphonate], pIC50 6.90. Against it:
- CS(=O)(=O)c1ccc(-c2cc(N3CCOCC3)nc3c(-c4ccn[nH]4)nccc23)cn1 [Example 3, 4-[6-(methylsulfonyl)pyridin-3-yl]-2-(morpholin-4-yl)-8-(1H-pyrazol-5-yl)-1,7-naphthyridine] — 0.51 log units higher, 7.41
- Cc1cc(N2CCOCC2)nc2c(-c3cc[nH]n3)nccc12 [Example 20, 4-methyl-2-(morpholin-4-yl)-8-(1H-pyrazol-3-yl)-[1,7]naphthyridine hydrochloride] — 0.41 log units lower, 6.49
- C[C@@H]1COCCN1c1cc(S(C)(=O)=O)c2ccnc(-c3ccn[nH]3)c2n1 [Example 33, 2-[(3R)-3-methylmorpholin-4-yl]-4-(methylsulfonyl)-8-(1H-pyrazol-5-yl)-1,7-naphthyridine] — 1.09 log units higher, 7.99
- CC(C)S(=N)(=O)c1ccc(-c2cc(N3CCOCC3)nc3c(-c4ccn[nH]4)nccc23)cc1 (stereo not drawn) [Example 25, 2-(morpholin-4-yl)-4-{4-[S-(propan-2-yl)sulfonimidoyl]phenyl}-8-(1H-pyrazol-5-yl)-1,7-naphthyridine] — 0.22 log units higher, 7.12
- C[C@@H]1COCCN1c1cc(-c2ccc(S(C)(=O)=O)cc2)c2ccnc(-c3cc[nH]n3)c2n1 [Example 26, 4-(4-methanesulphonylphenyl)-2-((R)-3-methylmorpholin-4-yl)-8-(2H-pyrazol-3-yl)-[1,7]naphthyridine] — 1.30 log units higher, 8.20
